# Laboratory results reported in paper PMC12004446, “Inhibition by 4-(4-Bromo-2-oxo-3H-benzimidazol-1-yl)-N-(4-iodophenyl)piperidine-1-carboxamide (TH5487) of the Activity of Human 8-Oxoguanine DNA Glycosylase-1 (OGG1) for the Excision of 2,6-Diamino-4-hydroxy-5-formamidopyrimidine, 4,6-Diamino-5-formamidopyrimidine, and 8-Oxoguanine from Oxidatively …” (Biochemistry, 2025).
# Molecular target: T1, human 8-oxoguanine DNA glycosylase-1 (hOGG1) (Homo sapiens, UniProt O15527)
# T1 construct: gene OGG1
# T1 sequence (O15527 whole entry): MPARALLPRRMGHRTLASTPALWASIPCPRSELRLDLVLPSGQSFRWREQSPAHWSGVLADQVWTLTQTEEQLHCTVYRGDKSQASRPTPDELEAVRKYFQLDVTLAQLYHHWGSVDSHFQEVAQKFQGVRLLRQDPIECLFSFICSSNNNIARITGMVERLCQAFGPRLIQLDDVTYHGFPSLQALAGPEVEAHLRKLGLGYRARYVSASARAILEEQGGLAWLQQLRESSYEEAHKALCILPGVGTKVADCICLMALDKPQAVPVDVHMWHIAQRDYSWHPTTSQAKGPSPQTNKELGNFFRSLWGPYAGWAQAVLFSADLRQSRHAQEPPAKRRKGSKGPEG
# Test: fluorescence-based 8-oxo-Gua duplex oligodeoxynucleotide incision assay with purified hOGG1; also GC-MS/MS of lesion excision from genomic DNA
# Format: biochemical
smiles,measurement,value
"O=C(Nc1ccc(I)cc1)N1CCC(n2c(=O)[nH]c3c(Br)cccc32)CC1 [TH5487, 4-(4-bromo-2-oxo-3H-benzimidazol-1-yl)-N-(4-iodophenyl)piperidine-1-carboxamide]",IC50,800 nM
